# Laboratory results published in patent US20030170829A1 (priority 2001, published 2003).
# “Also recorded” adds a separate entry of the source. Like-named read-outs stand apart in the source and are kept apart here.
# What was measured:
# AFDH [1] = type: biochemical, Anthracobia melaloma; conditions: for Relative activity (%): None = 100
# AFDH [2] = system: AFDH
# AFDH [3] = system: AFDH; remark: listed apart in the source
# [4] = substrate 100 μl, 12.79 μmol/ml
# [5] = substrate 130 μl, 16.63 μmol/ml
# [6] = substrate 160 μl, 20.46 μmol/ml
# [7] = substrate 180 μl, 23.02 μmol/ml
# [8] = substrate 200 μl, 25.58 μmol/ml
# [9] = substrate 230 μl, 29.42 μmol/ml
# [10] = substrate 260 μl, 33.25 μmol/ml
# [11] = substrate 300 μl, 38.37 μmol/ml
# [12] = substrate 400 μl, 51.16 μmol/ml
# [13] = substrate 450 μl, 57.56 μmol/ml
# [14] = substrate 480 μl, 61.39 μmol/ml
# [15] = substrate 100 μl, 24.75 μmol/ml
# [16] = substrate 120 μl, 29.69 μmol/ml
# [17] = substrate 150 μl, 37.12 μmol/ml
# [18] = substrate 170 μl, 42.07 μmol/ml
# [19] = substrate 200 μl, 49.49 μmol/ml
# [20] = substrate 250 μl, 61.86 μmol/ml
# [21] = substrate 300 μl, 74.24 μmol/ml
structure (smiles),measurement,setting,value
O[C@@H](CS)[C@@H](O)CS [DTT],effect on AFDH activity,AFDH [1],inhibited
same,Relative activity (%),AFDH [1]; inhibitor 10 mM,57%
[Ca+2].[Cl-].[Cl-] [CaCl2],concentration found to increase the activity with a factor of two,AFDH [1],10 mM
same,effect on AFDH activity,AFDH [1],increased
same,Activity units,AFDH [1]; effector 5 mM,1245.0 units
same,OD263,AFDH [1]; effector 5 mM,0.747
same,Activity units,AFDH [1]; effector 10 mM,1442.7 units
same,OD263,AFDH [1]; effector 10 mM,0.865
same,Activity units,AFDH [1]; effector 15 mM,1455.0 units
same,OD263,AFDH [1]; effector 15 mM,0.873
same,Activity units,AFDH [1]; effector 20 mM,1531.7 units
same,OD263,AFDH [1]; effector 20 mM,0.919
same,Activity units,AFDH [1]; effector 25 mM,1561.7 units
same,OD263,AFDH [1]; effector 25 mM,0.937
same,Activity units,AFDH [1]; effector 30 mM,1601.7 units
same,OD263,AFDH [1]; effector 30 mM,0.961
same,Activity units,AFDH [1]; effector 40 mM,1473.3 units
same,OD263,AFDH [1]; effector 40 mM,0.884
same,Activity units,AFDH [1]; effector 50 mM,1466.7 units
same,OD263,AFDH [1]; effector 50 mM,0.880
[Cl-].[Na+] [NaCl],concentration found to increase the activity with a factor of two,AFDH [1],50 mM
same,Activity units,AFDH [1]; NaCl 0.05 M,1263.3 units
same,OD263,AFDH [1]; NaCl 0.05 M,0.758
same,Activity units,AFDH [1]; NaCl 0.1 M,1348.3 units
same,OD263,AFDH [1]; NaCl 0.1 M,0.809
same,Activity units,AFDH [1]; NaCl 0.15 M,1381.7 units
same,OD263,AFDH [1]; NaCl 0.15 M,0.829
same,Activity units,AFDH [1]; NaCl 0.2 M,1415.0 units
same,OD263,AFDH [1]; NaCl 0.2 M,0.849
same,Activity units,AFDH [1]; NaCl 0.3 M,1453.3 units
same,OD263,AFDH [1]; NaCl 0.3 M,0.872
same,Activity units,AFDH [1]; NaCl 0.4 M,1338.3 units
same,OD263,AFDH [1]; NaCl 0.4 M,0.803
same,Activity units,AFDH [1]; NaCl 0.5 M,1301.7 units
same,OD263,AFDH [1]; NaCl 0.5 M,0.781
same,Activity units,AFDH [1]; NaCl 0.6 M,1286.7 units
same,OD263,AFDH [1]; NaCl 0.6 M,0.772
same,Activity units,AFDH [1]; NaCl 0.7 M,1271.7 units
same,OD263,AFDH [1]; NaCl 0.7 M,0.763
same,Activity units,AFDH [1]; NaCl 0.8 M,1223.3 units
same,OD263,AFDH [1]; NaCl 0.8 M,0.734
same,Activity units,AFDH [1]; NaCl 0.9 M,1141.7 units
same,OD263,AFDH [1]; NaCl 0.9 M,0.685
same,effect on AFDH activity,AFDH [1]; listed as Na^+,increased; also recorded: positive effect
O=C(O)CN(CCN(CC(=O)O)CC(=O)O)CC(=O)O [EDTA],effect on AFDH activity,AFDH [1],inhibited
same,Relative activity (%),AFDH [1]; inhibitor 10 mM,59%
same,Relative activity (%),AFDH [1]; inhibitor 50 mM,16%
[Cl-].[Cl-].[Zn+2] [ZnCl2],effect on AFDH activity,AFDH [1],inhibited
same,Activity units,AFDH [1]; effector 5 mM,551.7 units
same,OD263,AFDH [1]; effector 5 mM,0.331
same,Activity units,AFDH [1]; effector 10 mM,435.0 units
same,OD263,AFDH [1]; effector 10 mM,0.261
same,Activity units,AFDH [1]; effector 15 mM,315.0 units
same,OD263,AFDH [1]; effector 15 mM,0.189
same,Activity units,AFDH [1]; effector 20 mM,241.7 units
same,OD263,AFDH [1]; effector 20 mM,0.145
same,Activity units,AFDH [1]; effector 25 mM,220.0 units
same,OD263,AFDH [1]; effector 25 mM,0.132
same,Activity units,AFDH [1]; effector 30 mM,201.7 units
same,OD263,AFDH [1]; effector 30 mM,0.121
same,Activity units,AFDH [1]; effector 40 mM,158.3 units
same,OD263,AFDH [1]; effector 40 mM,0.095
same,Activity units,AFDH [1]; effector 50 mM,135.0 units
same,OD263,AFDH [1]; effector 50 mM,0.081
same,Relative activity (%),AFDH [1]; inhibitor 10 mM,52.52%
"O=C1CO[C@H](CO)[C@@H](O)[C@@H]1O [AF, 1,5-anhydro-D-fructose]",Km,"AFDH [2]; read-out: apparent Km (concentration that yielded half of the maximum activity), substrate AF, pH 6.7, 22 °C",12.6 mM
same,Activity units,"AFDH [2]; substrate 5 μl, 0.64 μmol/ml",39.33 units
same,OD263,"AFDH [2]; substrate 5 μl, 0.64 μmol/ml",0.059
same,Activity units,"AFDH [2]; substrate 10 μl, 1.28 μmol/ml",62.67 units
same,OD263,"AFDH [2]; substrate 10 μl, 1.28 μmol/ml",0.094
same,Activity units,"AFDH [2]; substrate 20 μl, 2.56 μmol/ml",101.33 units
same,OD263,"AFDH [2]; substrate 20 μl, 2.56 μmol/ml",0.152
same,Activity units,"AFDH [2]; substrate 30 μl, 3.84 μmol/ml",182.67 units
same,OD263,"AFDH [2]; substrate 30 μl, 3.84 μmol/ml",0.274
same,Activity units,"AFDH [2]; substrate 40 μl, 5.12 μmol/ml",210.67 units
same,OD263,"AFDH [2]; substrate 40 μl, 5.12 μmol/ml",0.316
same,Activity units,"AFDH [2]; substrate 50 μl, 6.40 μmol/ml",218.67 units
same,OD263,"AFDH [2]; substrate 50 μl, 6.40 μmol/ml",0.328
same,Activity units,"AFDH [2]; substrate 60 μl, 0.46 μmol/ml",256.00 units
same,OD263,"AFDH [2]; substrate 60 μl, 0.46 μmol/ml",0.384
same,Activity units,"AFDH [2]; substrate 70 μl, 8.95 μmol/ml",327.33 units
same,OD263,"AFDH [2]; substrate 70 μl, 8.95 μmol/ml",0.491
same,Activity units,AFDH [2]; [4],412.00 units
same,OD263,AFDH [2]; [4],0.618
same,Activity units,AFDH [2]; [5],456.67 units
same,OD263,AFDH [2]; [5],0.685
same,Activity units,AFDH [2]; [6],511.33 units
same,OD263,AFDH [2]; [6],0.767
same,Activity units,AFDH [2]; [7],549.33 units
same,OD263,AFDH [2]; [7],0.824
same,Activity units,AFDH [2]; [8],561.33 units
same,OD263,AFDH [2]; [8],0.842
same,Activity units,AFDH [2]; [9],594.67 units
same,OD263,AFDH [2]; [9],0.892
same,Activity units,AFDH [2]; [10],609.33 units
same,OD263,AFDH [2]; [10],0.914
same,Activity units,AFDH [2]; [11],646.67 units
same,OD263,AFDH [2]; [11],0.97
same,Activity units,AFDH [2]; [12],738.67 units
same,OD263,AFDH [2]; [12],1.108
same,Activity units,AFDH [2]; [13],767.33 units
same,OD263,AFDH [2]; [13],1.151
same,Activity units,AFDH [2]; [14],772.67 units
same,OD263,AFDH [2]; [14],1.159
same,Vmax,"AFDH [2]; substrate AF, pH 6.7, 22 °C",769 units
O=CC(=O)[C@@H](O)[C@H](O)[C@H](O)CO [D-glucosone],Km,"AFDH [3]; read-out: apparent Km (concentration that yielded half of the maximum activity), substrate D-glucosone, pH 6.7, 22 °C",27.6 mM
same,Activity units,"AFDH [3]; substrate 5 μl, 1.24 μmol/ml",33.33 units
same,OD265,"AFDH [3]; substrate 5 μl, 1.24 μmol/ml",0.050
same,Activity units,"AFDH [3]; substrate 10 μl, 2.47 μmol/ml",36.00 units
same,OD265,"AFDH [3]; substrate 10 μl, 2.47 μmol/ml",0.054
same,Activity units,"AFDH [3]; substrate 20 μl, 4.95 μmol/ml",57.33 units
same,OD265,"AFDH [3]; substrate 20 μl, 4.95 μmol/ml",0.086
same,Activity units,"AFDH [3]; substrate 30 μl, 7.42 μmol/ml",79.30 units
same,OD265,"AFDH [3]; substrate 30 μl, 7.42 μmol/ml",0.119
same,Activity units,"AFDH [3]; substrate 40 μl, 9.90 μmol/ml",101.33 units
same,OD265,"AFDH [3]; substrate 40 μl, 9.90 μmol/ml",0.152
same,Activity units,"AFDH [3]; substrate 50 μl, 12.37 μmol/ml",114.00 units
same,OD265,"AFDH [3]; substrate 50 μl, 12.37 μmol/ml",0.171
same,Activity units,"AFDH [3]; substrate 60 μl, 14.85 μmol/ml",140.67 units
same,OD265,"AFDH [3]; substrate 60 μl, 14.85 μmol/ml",0.211
same,Activity units,"AFDH [3]; substrate 70 μl, 17.32 μmol/ml",164.67 units
same,OD265,"AFDH [3]; substrate 70 μl, 17.32 μmol/ml",0.247
same,Activity units,"AFDH [3]; substrate 80 μl, 19.80 μmol/ml",180.67 units
same,OD265,"AFDH [3]; substrate 80 μl, 19.80 μmol/ml",0.271
same,Activity units,"AFDH [3]; substrate 90 μl, 22.27 μmol/ml",215.30 units
same,OD265,"AFDH [3]; substrate 90 μl, 22.27 μmol/ml",0.323
same,Activity units,AFDH [3]; [15],230.67 units
same,OD265,AFDH [3]; [15],0.346
same,Activity units,AFDH [3]; [16],262.67 units
same,OD265,AFDH [3]; [16],0.379
same,Activity units,AFDH [3]; [17],310.20 units
same,OD265,AFDH [3]; [17],0.394
same,Activity units,AFDH [3]; [18],352.62 units
same,OD265,AFDH [3]; [18],0.529
same,Activity units,AFDH [3]; [19],394.62 units
same,OD265,AFDH [3]; [19],0.592
same,Activity units,AFDH [3]; [20],407.33 units
same,OD265,AFDH [3]; [20],0.611
same,Activity units,AFDH [3]; [21],414.67 units
same,OD265,AFDH [3]; [21],0.622
same,Vmax,"AFDH [3]; substrate D-glucosone, pH 6.7, 22 °C",416 units
[Cl-].[Cl-].[Mg+2] [MgCl2],concentration found to increase the activity with a factor of two,AFDH [1],25 mM
same,effect on AFDH activity,AFDH [1],increased
same,Activity units,AFDH [1]; effector 5 mM,1053.3 units
same,OD263,AFDH [1]; effector 5 mM,0.632
same,Activity units,AFDH [1]; effector 10 mM,1228.3 units
same,OD263,AFDH [1]; effector 10 mM,0.737
same,Activity units,AFDH [1]; effector 15 mM,1255.0 units
same,OD263,AFDH [1]; effector 15 mM,0.753
same,Activity units,AFDH [1]; effector 20 mM,1295.0 units
same,OD263,AFDH [1]; effector 20 mM,0.777
same,Activity units,AFDH [1]; effector 25 mM,1316.7 units
same,OD263,AFDH [1]; effector 25 mM,0.790
same,Activity units,AFDH [1]; effector 30 mM,1291.7 units
same,OD263,AFDH [1]; effector 30 mM,0.775
same,Activity units,AFDH [1]; effector 40 mM,1243.3 units
same,OD263,AFDH [1]; effector 40 mM,0.746
same,Activity units,AFDH [1]; effector 50 mM,1186.7 units
same,OD263,AFDH [1]; effector 50 mM,0.712
